According to PubChem BioAssay AID330 (DTP/NCI, 2004):
Toxic doses and inconclusive results are not listed.

System: P388 leukemia ip, CD2F1 mice, survival T/C
Assay: NCI In Vivo Anticancer Drug Screen. Data for tumor model P388 Leukemia (intraperitoneal) in CD2F1 (CDF1) mice
Conditions: endpoint: median survival time, higher = longer survival
Summary of the method: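 Mice carrying the transplanted tumor received test compound or vehicle. Survival was recorded in each group, and the value is the treated-group measurement divided by that of the vehicle-treated control group.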

[1] = dose: 50.0 mg/kg/injection, schedule: Q01DX009 (ip), vehicle: saline with Tween-80
[2] = dose: 100.0 mg/kg/injection, schedule: Q01DX009 (ip), vehicle: saline with Tween-80
[3] = dose: 200.0 mg/kg/injection, schedule: Q01DX009 (ip), vehicle: saline with Tween-80
[4] = dose: 50.0 mg/kg/injection, schedule: Q01DX005 (ip), vehicle: saline with Tween-80
[5] = dose: 100.0 mg/kg/injection, schedule: Q01DX005 (ip), vehicle: saline with Tween-80
[6] = dose: 200.0 mg/kg/injection, schedule: Q01DX005 (ip), vehicle: saline with Tween-80
[7] = dose: 100.0 mg/kg/injection, schedule: Q04DX003 (ip), vehicle: saline with Tween-80
[8] = dose: 60.0 mg/kg/injection, schedule: Q01DX005 (ip), vehicle: saline with Tween-80
[9] = dose: 120.0 mg/kg/injection, schedule: Q01DX005 (ip), vehicle: saline with Tween-80
[10] = dose: 240.0 mg/kg/injection, schedule: Q01DX005 (ip), vehicle: saline with Tween-80

COc1ccc(-c2nn(CCO)c(=O)c(C#N)c2-c2ccc(OC)cc2)cc1
T/C (dose: 25.0 mg/kg/injection, schedule: Q04DX002 (ip), vehicle: distilled water + Tween-80): 101 % of control
T/C (dose: 50.0 mg/kg/injection, schedule: Q04DX002 (ip), vehicle: distilled water + Tween-80): 98 % of control
T/C (dose: 100.0 mg/kg/injection, schedule: Q04DX002 (ip), vehicle: distilled water + Tween-80): 103 % of control
T/C (dose: 200.0 mg/kg/injection, schedule: Q04DX002 (ip), vehicle: distilled water + Tween-80): 89 % of control

Oc1ccc(C(c2ccc(O)cc2)C(c2ccc(O)cc2)c2ccc(O)cc2)cc1
T/C [1]: 107 % of control
T/C [2]: 100 % of control
T/C [3]: 113 % of control

COC(=O)C1=C/C=C\CN/C=C\1C(=O)OC
T/C (dose: 100.0 mg/kg/injection, schedule: Q04DX003 (ip), vehicle: alcohol): 97 % of control
T/C (dose: 200.0 mg/kg/injection, schedule: Q04DX003 (ip), vehicle: alcohol): 97 % of control
T/C (dose: 400.0 mg/kg/injection, schedule: Q04DX003 (ip), vehicle: alcohol): 106 % of control

COc1cc2c(cc1O)c[n+](C)c1c3cc(OC)c(OC)cc3ccc21
T/C (dose: 7.8 mg/kg/injection, schedule: Q01DX009 (ip), vehicle: other): 107 % of control
T/C (dose: 31.3 mg/kg/injection, schedule: Q01DX009 (ip), vehicle: other): 122 % of control
T/C (dose: 62.5 mg/kg/injection, schedule: Q01DX009 (ip), vehicle: other): 120 % of control
T/C (dose: 125.0 mg/kg/injection, schedule: Q01DX009 (ip), vehicle: other): 120 % of control

O=c1[nH][nH]c(=O)c2c1Nc1c(c(=O)[nH][nH]c1=O)C2c1ccncc1
T/C [4]: 103 % of control
T/C [5]: 108 % of control
T/C [6]: 96 % of control

O=C(O)c1c(Cl)cccc1Cl
T/C (dose: 25.0 mg/kg/injection, schedule: Q01DX009 (ip), vehicle: saline with Tween-80): 109 % of control
T/C (dose: 25.0 mg/kg/injection, schedule: Q04DX003 (ip), vehicle: saline with Tween-80): 100 % of control
T/C [1]: 100 % of control
T/C (dose: 50.0 mg/kg/injection, schedule: Q04DX003 (ip), vehicle: saline with Tween-80): 95 % of control
T/C [2]: 100 % of control
T/C [7]: 95 % of control

O=[N+]([O-])c1cc(CN(CCO)CCO)c(O)c2ncccc12
T/C [8]: 104 % of control
T/C [9]: 109 % of control

COc1cccc2c1C(=O)c1c(O)c3c(c(O)c1C2=O)CC(O)(/C(C)=N/NC(=S)c1ccccc1)CC3OC1CC(N)C(O)C(C)O1 (stereo unspecified)
T/C (dose: 3.13 mg/kg/injection, schedule: Q01DX009 (ip), vehicle: other): 88 % of control
T/C (dose: 6.25 mg/kg/injection, schedule: Q01DX009 (ip), vehicle: other): 96 % of control
T/C (dose: 6.25 mg/kg/injection, schedule: Q04DX003 (ip), vehicle: saline): 154 % of control
T/C (dose: 12.5 mg/kg/injection, schedule: Q01DX009 (ip), vehicle: other): 103 % of control
T/C (dose: 12.5 mg/kg/injection, schedule: Q04DX003 (ip), vehicle: saline): 159 % of control
T/C (dose: 25.0 mg/kg/injection, schedule: Q01DX009 (ip), vehicle: other): 88 % of control
T/C (dose: 25.0 mg/kg/injection, schedule: Q04DX003 (ip), vehicle: saline): 166 % of control

Nc1nnc2nc(C(C(=O)/C=C\c3cccc(O)c3)c3nc4nnc(N)n4[nH]c3=O)c(=O)[nH]n12
T/C [4]: 95 % of control
T/C [5]: 94 % of control
T/C [6]: 100 % of control

Clc1ccc(-c2nnc(-c3ccncc3)o2)c(Cl)c1
T/C [8]: 93 % of control
T/C [9]: 93 % of control
T/C [10]: 86 % of control

[O-][n+]1c(-c2ccccc2)c(Cl)c(-c2ccccc2)n1O
T/C (dose: 1.5 mg/kg/injection, schedule: Q01DX005 (ip), vehicle: Klucel + Tween-80): 99 % of control
T/C (dose: 3.0 mg/kg/injection, schedule: Q01DX005 (ip), vehicle: Klucel + Tween-80): 100 % of control
T/C (dose: 6.0 mg/kg/injection, schedule: Q01DX005 (ip), vehicle: Klucel + Tween-80): 96 % of control
T/C (dose: 60.0 mg/kg/injection, schedule: Q01DX005 (ip), vehicle: Klucel + Tween-80): 98 % of control

CC(=O)OCC12C(=O)CC(C)C3(CC(c4ccoc4)OC3=O)C1(C)CCCC21CO1 (stereo unspecified) (tested in a mixture with another compound)
T/C (dose: 12.0 mg/kg/injection, schedule: Q01DX005 (ip), vehicle: Klucel (hydroxypropylcellulose) (HPC)): 94 % of control
T/C (dose: 24.0 mg/kg/injection, schedule: Q01DX005 (ip), vehicle: Klucel (hydroxypropylcellulose) (HPC)): 92 % of control
T/C (dose: 48.0 mg/kg/injection, schedule: Q01DX005 (ip), vehicle: Klucel (hydroxypropylcellulose) (HPC)): 91 % of control
T/C (dose: 96.0 mg/kg/injection, schedule: Q01DX005 (ip), vehicle: Klucel (hydroxypropylcellulose) (HPC)): 100 % of control

Brc1cnn(Cn2cc(Br)cn2)c1
T/C (dose: 60.0 mg/kg/injection, schedule: Q01DX005 (ip), vehicle: Klucel (hydroxypropylcellulose) (HPC)): 102 % of control
T/C (dose: 120.0 mg/kg/injection, schedule: Q01DX005 (ip), vehicle: Klucel (hydroxypropylcellulose) (HPC)): 102 % of control
T/C (dose: 240.0 mg/kg/injection, schedule: Q01DX005 (ip), vehicle: Klucel (hydroxypropylcellulose) (HPC)): 99 % of control

CCCCCCCCCCN(CCCCCCCCCC)C(=O)C(C)OC(C)=O (stereo unspecified)
T/C [4]: 98 % of control
T/C [5]: 101 % of control
T/C [6]: 104 % of control

COC1/C=C/OC2(C)Oc3c(C)c(O)c4c(O)c(c(/C=N/Nc5nc6c(N)ncnc6n5C5OC(CO)C(O)C5O)c(O)c4c3C2=O)NC(=O)C(C)=C/C=C/C(C)C(O)C(C)C(O)C(C)C(OC(C)=O)C1C (stereo unspecified)
T/C [1]: 104 % of control
T/C [2]: 99 % of control
T/C [3]: 113 % of control

O=[N+]([O-])c1ccc(Nc2ccc(Cl)cc2)c2nonc12
T/C [4]: 100 % of control
T/C [5]: 103 % of control
T/C [6]: 97 % of control

COC(C(=O)C(O)C(C)O)C1Cc2cc3cc(OC4CC(OC5CC(O)C(O)C(C)O5)C(O)C(C)O4)c(C)c(O)c3c(O)c2C(=O)C1OC1CC(OC2CC(O)C(OC3CC(C)(O)C(O)C(C)O3)C(C)O2)C(O)C(C)O1 (stereo unspecified)
T/C (dose: 0.06 mg/kg/injection, schedule: Q01DX009 (ip), vehicle: saline): 122 % of control
T/C (dose: 0.13 mg/kg/injection, schedule: Q01DX001 (ip), vehicle: saline): 104 % of control
T/C (dose: 0.13 mg/kg/injection, schedule: Q01DX009 (ip), vehicle: saline): 106 % of control
T/C (dose: 0.25 mg/kg/injection, schedule: Q01DX001 (ip), vehicle: saline): 103 % of control
T/C (dose: 0.25 mg/kg/injection, schedule: Q01DX009 (ip), vehicle: saline): 109 % of control
T/C (dose: 0.5 mg/kg/injection, schedule: Q01DX001 (ip), vehicle: saline): 109 % of control
T/C (dose: 0.5 mg/kg/injection, schedule: Q04DX003 (ip), vehicle: saline): 116 % of control
T/C (dose: 2.0 mg/kg/injection, schedule: Q01DX009 (ip), vehicle: saline): 151 % of control

CCCCn1c(=O)cc[nH]c1=O
T/C [7]: 100 % of control
T/C (dose: 200.0 mg/kg/injection, schedule: Q04DX003 (ip), vehicle: saline with Tween-80): 100 % of control
T/C (dose: 400.0 mg/kg/injection, schedule: Q04DX003 (ip), vehicle: saline with Tween-80): 99 % of control

CN(NC(=O)CCl)c1ccc([N+](=O)[O-])cc1[N+](=O)[O-]
T/C [2]: 118 % of control
T/C [3]: 108 % of control
T/C (dose: 400.0 mg/kg/injection, schedule: Q01DX009 (ip), vehicle: saline with Tween-80): 94 % of control

C1=CC=CCC=C1
T/C (dose: 12.5 mg/kg/injection, schedule: Q01DX009 (ip), vehicle: saline with Tween-80): 120 % of control

CC(=O)c1ccc(NN=NCCCl)cc1
T/C (dose: 12.5 mg/kg/injection, schedule: Q01DX009 (ip), vehicle: distilled water + Tween-80): 98 % of control
T/C (dose: 25.0 mg/kg/injection, schedule: Q01DX009 (ip), vehicle: distilled water + Tween-80): 100 % of control
T/C (dose: 50.0 mg/kg/injection, schedule: Q01DX009 (ip), vehicle: distilled water + Tween-80): 104 % of control
T/C (dose: 100.0 mg/kg/injection, schedule: Q01DX009 (ip), vehicle: distilled water + Tween-80): 104 % of control
T/C (dose: 200.0 mg/kg/injection, schedule: Q01DX009 (ip), vehicle: distilled water + Tween-80): 107 % of control

O=C(Nc1ccc(Cl)c(Cl)c1)Oc1ccccc1Cl
T/C [8]: 106 % of control
T/C [9]: 107 % of control
T/C [10]: 105 % of control
